In US10308607B2, “Fucosidase inhibitors” (HORIZON ORPHAN LLC, priority 2015, dated 2019):

Experiments:
fucosidase = conditions: Li et al. 2008; cited from earlier work
rhFUCA1 = rhFUCA1 (Homo sapiens (Human), UniProt P04066); assay: In vitro fucosidase inhibition (4MU-FUC fluorescence); assay type: biochemical; conditions: 1 ng/mL rhFUCA1, 640 nM 4MU-FUC, pH 4.5, 37° C., 30 minutes
Description: Fucosidase inhibition was assessed by preparing a reaction mixture of 50 mM phosphate-citrate pH 4.5, 5 mM MgCl2, 640 nM 4-methylumbelliferyl-alpha-L-fucopyranoside (4MU-FUC), 1 ng/mL rhFUCA1 (R&D Systems), and compound II, III, or IV:
Reactions (100 μL) were incubated at 37° C. for 30 minutes and then quenched with the same volume of 600 mM citrate-carbonate buffer, pH 9. Fluorescence was measured by excitation at 360 nm and emission at 450 nm.

HepG2 cells [1] = assay: Metabolic labeling with tagged-fucose, flow cytometry; assay type: cell-based, human; conditions: for Mean Green Fluorescence (GRN-HLog): HepG2, 24 hours compound then 48 hours fucose alkyne, Alexa Fluor 488 Azide; for Fold over vehicle: mean green fluorescence, HepG2
Description: Perturbations in glycoprotein metabolism were assayed by growing HepG2 cells without fucosidase inhibitors, or with compound II, III, or IV (see Example 2) for 24 hours, and then adding (3S,4R,5R,6S)-6-ethynyltetrahydro-2H-pyran-2,3,4,5-tetrayl tetra acetate, a per-acetylated analog of fucose containing an alkyne moiety in place of the 5′-methyl group (Click-iT™ Fucose Alkyne, Molecular Probes, Eugene, Oreg.) for an additional 48 hours. Cells were fixed, permeabilized, washed, and stained with Alexa Fluor 488 Azide to orthogonally label glycoproteins incorporating the fucose analog. Cells were then analyzed for fluorescence using a Guava 6HT-2L flow cytometer (ThermoFisher).

HepG2 cells [2] = assay: Cytotoxicity in HepG2 cells (XTT assay); assay type: cell-based, human; conditions: HepG2, 24 or 48 hours, compared to compound II
Description: To assess the compounds' cytotoxicity in cells, HepG2 cells were seeded in triplicate in 96-well plates at 1.5e4 cells/well in Minimum Essential Media, 10% FBS and 2 mM L-glutamine. Plated cells were allowed to recover for 48 hours. Medium was then replaced with the same media containing dilutions of compound II or IV (see Example 2), incubated for 24 or 48 hours, and subjected to XTT assay to measure viability (ATCC).

Chain of rhFUCA1 (P04066 32-466): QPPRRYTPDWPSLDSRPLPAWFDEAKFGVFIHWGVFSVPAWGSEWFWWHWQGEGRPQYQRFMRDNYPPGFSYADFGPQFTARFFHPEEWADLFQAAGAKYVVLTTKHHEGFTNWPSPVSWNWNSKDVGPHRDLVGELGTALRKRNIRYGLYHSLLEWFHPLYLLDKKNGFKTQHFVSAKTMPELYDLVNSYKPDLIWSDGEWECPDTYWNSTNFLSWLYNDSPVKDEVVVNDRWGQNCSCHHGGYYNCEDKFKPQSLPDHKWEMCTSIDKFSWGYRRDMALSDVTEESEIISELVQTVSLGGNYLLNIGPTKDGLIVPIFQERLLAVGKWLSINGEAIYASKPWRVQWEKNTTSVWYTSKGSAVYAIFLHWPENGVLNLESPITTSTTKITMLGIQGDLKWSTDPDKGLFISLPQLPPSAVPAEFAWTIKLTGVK

Row | IC50 (rhFUCA1) [nM] | SMILES | potency of fucosidase inhibition (fucosidase) | Mean Green Fluorescence (GRN-HLog) (HepG2 cells [1]) | Fold over vehicle (HepG2 cells [1]) | cytotoxicity (XTT viability) (HepG2 cells [2])
1 |  | CCCCN1C[C@H](O)[C@@H](O)[C@H](O)[C@H](C(=O)O)C1 [Faz, (3R,4R,5S,6S)-1-butyl-4,5,6-trihydroxyazepane-3-carboxylic acid] | low nanomolar range |  |  | 
2 | 59 | O=C(NC[C@@H]1N[C@@H](CF)[C@@H](O)[C@@H](O)[C@@H]1O)c1cccc2c1C(=O)c1ccccc1-2 [Compound III] |  | 1220 | 0.43 | 
3 | 1500 | C[C@@H]1N/C(=C\C(=O)Nc2cccc3c2C(=O)c2ccccc2-3)[C@@H](O)[C@H](O)[C@@H]1O [Compound IV] |  | 12900 | 4.56 | reduced cytotoxicity at higher inhibitor concentrations compared to compound II
